pIC50: −log10 of the molar value.
Target: T1, human CXCR6 (Homo sapiens, UniProt O00574)
T1 construct: expressed in transfected cells
Assay: Radioligand Binding Assay (125I-CXCL16 displacement)
Conditions: L1.2 cells stably transfected with human CXCR6 cDNA, 0.1 nM 125I-CXCL16, 4° C., three-hour incubation; read-out: Potency (IC50)
Method: L1.2 cells stably transfected with human CXCR6 cDNA ([…]) were incubated at 4° C. in HBSS containing 0.1 % BSA and 0.1 nM of ^125I-CXCL16 plus various concentrations of Compound. Following a three-hour incubation period, cells were aspirated onto polyethyleneimine-treated GF/B glass fiber filters (PerkinElmer, Waltham, MA) with a cell harvester (Tomtec, Hamden, CT) and washed twice with washing buffer (25 mM Hepes, 500 mM NaCl, 1 mM CaCI2, 5 mM MgCI2, pH 7.1). Fifty µl of MicroScint-20 (PerkinElmer, Waltham, MA) was added to each well of the filters, and radioactive emissions (cpm) were measured on a Packard TopCount Scintillation counter (PerkinElmer, Waltham, MA). IC50 values were calculated with GraphPad Prism using 3 parameter nonlinear regression. […]

T1 sequence (O00574 whole entry): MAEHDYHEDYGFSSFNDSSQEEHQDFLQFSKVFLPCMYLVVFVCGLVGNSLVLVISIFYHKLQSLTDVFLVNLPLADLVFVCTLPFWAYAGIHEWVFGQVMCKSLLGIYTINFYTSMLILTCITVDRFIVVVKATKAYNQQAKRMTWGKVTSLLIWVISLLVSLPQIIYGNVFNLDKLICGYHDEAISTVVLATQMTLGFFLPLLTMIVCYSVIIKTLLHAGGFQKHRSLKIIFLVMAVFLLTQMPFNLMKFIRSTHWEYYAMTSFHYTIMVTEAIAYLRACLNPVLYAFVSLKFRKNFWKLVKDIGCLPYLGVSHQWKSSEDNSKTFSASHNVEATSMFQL

| Structure (SMILES) | pIC50 |
| --- | --- |
| Cc1cc(NC(=O)c2c(C)noc2C)ccc1S(=O)(=O)Nc1cccc(C(F)(F)F)c1 [Example 1.325] | 4.70 to 5.70 |
| COc1cc(NC(=O)C2CCC(O)CC2)ccc1S(=O)(=O)Nc1cccc(C(F)(F)F)c1 (centres unmarked) [Example 1.140] | 4.70 to 5.70 |
| Cc1cc(NC(=O)c2cncs2)ccc1S(=O)(=O)Nc1cccc(C(F)(F)F)c1 [Example 1.501] | 6.12 to 6.70 |
| C=Cc1cc(NS(=O)(=O)c2ccc(NC(=O)[C@@H](CO)c3ccccc3)cc2OCC)ccc1C [Example 1.372] | ≥ 6.70 |
| CCCOc1cc(NC(=O)[C@@H](CO)c2ccccc2)ccc1S(=O)(=O)Nc1cccc(CC(F)(F)F)c1 [Example 1.496] | ≥ 6.70 |
| CCOc1cc(NC(=O)[C@@H](CO)c2ccccc2)ccc1S(=O)(=O)Nc1ccc(C)c(CC)c1 [Example 1.498] | ≥ 6.70 |
| Cc1cc(NC(=O)c2ccc(F)cc2)ccc1S(=O)(=O)Nc1cccc(C(F)(F)F)c1 [Example 1.002] | 6.12 to 6.70 |
| COc1cc(NC(=O)[C@@H]2CCCNC2)ccc1S(=O)(=O)Nc1cccc(C(F)(F)F)c1 [Example 1.471] | 4.70 to 5.70 |
| CCCc1cc(C(=O)Nc2ccc(S(=O)(=O)Nc3cccc(C(F)(F)F)c3)c(OC)c2)n(C)n1 [Example 1.578] | 5.70 to 6.12 |
| COc1cc(NC(=O)CC2CCNC2)ccc1S(=O)(=O)Nc1cccc(C(F)(F)F)c1 (centres unmarked) [Example 1.214] | 4.70 to 5.70 |
| COCC1(C(=O)Nc2ccc(S(=O)(=O)Nc3cccc(C(F)(F)F)c3)c(C)c2)CC1 [Example 1.424] | 4.70 to 5.70 |
| COc1cc(NC(=O)C(CO)c2ccccc2)ccc1S(=O)(=O)Nc1cccc(C(F)(F)F)c1 (centres unmarked) [Example 1.206] | 6.12 to 6.70 |
| COc1cc(NC(=O)CC2CCOCC2)ccc1S(=O)(=O)Nc1cccc(C(F)(F)F)c1 [Example 1.574] | 4.70 to 5.70 |
| COc1cc(NC(=O)[C@H]2CC[C@@H](OC)CC2)ccc1S(=O)(=O)Nc1cccc(C(F)(F)F)c1 [Example 1.371] | 4.70 to 5.70 |

Results, then the compound that gave them:

| pIC50 | Structure (SMILES) |
| --- | --- |
| 5.70 to 6.12 | CCOc1cc(NC(=O)[C@@H](O)C(C)C)ccc1S(=O)(=O)Nc1cccc(OC)c1C [Example 1.290] |
| ≥ 6.70 | CCOc1cc(NC(=O)[C@@H](CO)c2ccccc2)ccc1S(=O)(=O)Nc1ccc(F)c(OC(F)(F)F)c1 [Example 1.208] |
| ≥ 6.70 | CCOc1cc(NC(=O)C(C(C)C)C(C)O)ccc1S(=O)(=O)Nc1cccc(OC(F)(F)F)c1 (centres unmarked) [Example 1.133] |
| 6.12 to 6.70 | CCOc1cc(NC(=O)[C@H](CO)c2ccccc2)ccc1S(=O)(=O)Nc1cccc(OC(F)(F)F)c1 [Example 1.287] |
| ≥ 6.70 | CCN[C@H](C(=O)Nc1ccc(S(=O)(=O)Nc2ccc(C)c(OC(F)(F)F)c2)c(OCC)c1)C(C)C [Example 1.296] |
| ≥ 6.70 | CCOc1cc(NC(=O)C(O)[C@@H](C)CC)ccc1S(=O)(=O)Nc1cccc(C(F)(F)F)c1 (some centres unmarked) [Example 1.390] |
| 5.70 to 6.12 | CCOc1cc(NC(=O)C2CCCCCC2)ccc1S(=O)(=O)Nc1cccc(OC(F)(F)F)c1 [Example 1.355] |
| ≥ 6.70 | CCOc1cc(NC(=O)[C@@H](O)Cc2ccccc2)ccc1S(=O)(=O)Nc1cccc(OC(F)(F)F)c1 [Example 1.207] |
| ≥ 6.70 | CCOc1cc(NC(=O)[C@@H](O)C(C)C)ccc1S(=O)(=O)Nc1cccc(C(F)(F)F)c1 [Example 1.088] |
| ≥ 6.70 | CCCc1cc(NC(=O)[C@@H](CO)C(C)C)ccc1S(=O)(=O)Nc1cccc(OC(F)(F)F)c1 [Example 1.311] |
| ≥ 6.70 | CCOc1cc(NC(=O)C(O)C2CCCOC2)ccc1S(=O)(=O)Nc1cccc(OC(F)(F)F)c1 (centres unmarked) [Example 1.094] |
| ≥ 6.70 | COc1cc(NC(=O)[C@@H](CO)C(C)C)ccc1S(=O)(=O)Nc1ccc(C)c(OC(F)(F)F)c1 [Example 1.191] |
| 5.70 to 6.12 | CCOc1cc(NC(=O)C2(O)CCCCC2)ccc1S(=O)(=O)Nc1cccc(OC(F)(F)F)c1 [Example 1.083] |
| 4.70 to 5.70 | CCOc1cc(NC(=O)[C@@H](CO)C(C)C)ccc1S(=O)(=O)Nc1cccc(OC(F)(F)F)c1C [Example 1.101] |
| ≥ 6.70 | CC(C)[C@H](CO)C(=O)Nc1ccc(S(=O)(=O)Nc2cccc(OC(F)(F)F)c2)c(Cl)c1 [Example 1.085] |

Reference: patent US20230339851A1, “CXCR6 SULFONAMIDE COMPOUNDS” (CHEMOCENTRYX, INC., priority 2022, published 2023)
